Where two headings read alike, the source gives them in different places.
How the values were obtained:
COX-1 = COX-1 (Ovis aries, UniProt P05979); settings: 0.45 μM, n=3
Experimental: (§1) In summary, FDC-2-4 was treated with a 1:1 ratio of porcine pancreatic lipase and colipase (PL/C). Inhibition of cyclooxygenase was determined using a colorimetric (ovine) COX inhibitor screening assay. The conversion of arachidonic acid to prostaglandin H2 was monitored by a colorimetric reaction. […] Reaction was initiated by adding 100-μM arachidonic acid and 100-μM tetramethyl-p-phenylenediamine (TMPD—the colourimetric substrate). The optical density of the colored product was determined at 620 nm. Acetylsalicylate was used as a positive control in all experiments.
(§2) The solution was vortexed for 2 min. and sonicated for 5 min. before adding 2.5 mg porcine pancreatic lipase and 2.5 mg porcine colipase. The reaction was incubated at room temperature for 2 hours.
(§3) Inhibition was determined using a colorimetric (ovine) COX inhibitor screening assay (Cayman Chemicals). The conversion of arachidonic acid to prostaglandin H2 was monitored by a colorimetric reaction. COX was exposed to the inhibitors for 5 minutes. Reaction was initiated by adding 100-μM arachidonic acid and 100-μM tetramethyl-p-phenylenediamine (TMPD—the colourimetric substrate). The optical density of the colored product was determined at 620 nm 5 minutes after initiation. […] PL/C-treated FDC-2-4 was compared with non-PL/C-treated FDC-2-4 and control (no FDC-2-4 added) in determining COX inhibition. Acetylsalicylate (ASA), was used as a positive control in all experiments. Statistical Analysis on all treatment groups were done using ANOVA and Tukey Posthoc tests.

COX-2 = COX-2 (Ovis aries, UniProt P79208); settings: 4.5 μM, n=3
Sequence of COX-2 (P79208 17-603): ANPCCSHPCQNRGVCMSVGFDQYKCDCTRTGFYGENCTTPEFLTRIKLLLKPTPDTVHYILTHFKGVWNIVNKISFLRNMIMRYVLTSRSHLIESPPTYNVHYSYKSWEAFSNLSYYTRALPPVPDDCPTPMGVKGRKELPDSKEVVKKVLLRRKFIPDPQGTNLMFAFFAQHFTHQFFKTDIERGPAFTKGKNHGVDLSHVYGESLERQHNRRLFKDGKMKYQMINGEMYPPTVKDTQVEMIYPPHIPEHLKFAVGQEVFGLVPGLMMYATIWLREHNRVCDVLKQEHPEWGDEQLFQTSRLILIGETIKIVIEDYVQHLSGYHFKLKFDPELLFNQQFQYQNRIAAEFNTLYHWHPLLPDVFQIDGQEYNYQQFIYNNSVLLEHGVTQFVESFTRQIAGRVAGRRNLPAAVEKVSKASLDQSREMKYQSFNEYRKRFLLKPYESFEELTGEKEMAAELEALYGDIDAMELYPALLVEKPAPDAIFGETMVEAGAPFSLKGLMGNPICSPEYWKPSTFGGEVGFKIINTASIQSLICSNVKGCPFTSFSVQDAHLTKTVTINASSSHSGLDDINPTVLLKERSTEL
Experimental: as §1, §2, §3

[1] = tested on: cholesterol absorption in the intestine; settings: 20 mg/kg single-dose oral gavage in Intralipid 10% emulsion; blood 10 hours after gavage; FIG. 3
Experimental: Adult male Sprague Dawley rats (˜350 g) were maintained under a 12 h light (0700-1900)/dark cycle and supplied with a laboratory standard diet and water ad libitum prior to starting the experiment.
Both groups received a single-dose oral gavage at 0700. Blood collection was performed by cardiac puncture 10 hours after oral gavage. Animals were fasted after gavage. Access to water was permitted ad libitum during the experiment. Blood obtained by cardiac puncture was collected in EDTA-coated tubes and centrifuged. Plasma samples were analyzed for [3H] cholesterol by radioactivity.
Adult male Sprague Dawley rats were given one of the derivatives of the present invention in an oral formulation containing:
20 mg/kg sterol/stanol analogue
1 mg unlabeled cholesterol
25 μCi [3H] Cholesterol in an emulsion with Intralipid 10%.
Animals were fasted 12-16 hours before and 10 hours after the oral gavage was performed. Blood samples were collected by cardiac puncture 10 hours following oral gavage. Plasma samples obtained by centrifugation were analyzed for [3H] Cholesterol and results expressed as a percentage of inhibition of cholesterol absorption in the intestine.
In addition sodium hydroxide was added to adjust the pH so that the final product pH is 8.0; pH range is 6.0 to 8.9. […] Each animal received 20 mg/kg body weight test substance dissolved in water or other appropriate solvent. […]

[2] = PL/C-treated (pancreatic lipase/colipase)

Sequence of COX-1 (P05979 25-600): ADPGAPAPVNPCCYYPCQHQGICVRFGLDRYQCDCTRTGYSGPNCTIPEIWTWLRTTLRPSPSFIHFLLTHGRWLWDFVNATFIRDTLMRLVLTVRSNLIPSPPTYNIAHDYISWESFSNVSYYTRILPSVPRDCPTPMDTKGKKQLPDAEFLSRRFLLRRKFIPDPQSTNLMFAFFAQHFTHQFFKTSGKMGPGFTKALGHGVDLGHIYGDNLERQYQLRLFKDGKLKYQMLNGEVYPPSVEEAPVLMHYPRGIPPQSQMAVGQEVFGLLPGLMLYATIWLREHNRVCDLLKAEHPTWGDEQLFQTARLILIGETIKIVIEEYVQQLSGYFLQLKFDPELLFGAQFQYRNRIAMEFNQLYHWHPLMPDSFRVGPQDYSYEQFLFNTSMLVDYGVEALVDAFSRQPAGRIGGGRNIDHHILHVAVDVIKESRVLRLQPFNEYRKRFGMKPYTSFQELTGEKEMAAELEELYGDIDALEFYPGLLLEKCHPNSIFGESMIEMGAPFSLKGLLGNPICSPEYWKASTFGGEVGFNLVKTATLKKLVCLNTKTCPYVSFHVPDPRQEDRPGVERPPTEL

acetoxyphytostanyl salicylate [FDC-2-4]
inhibition of COX-1 activity (COX-1; [2]): 69% | inhibition of COX-1 activity (COX-1; non-PL/C-treated): 20% | inhibition of COX-2 (COX-2; [2]): 88% | inhibition of COX-2 (COX-2; non-PL/C-treated): 64% | inhibition of cholesterol absorption (plasma [3H] cholesterol) compared with controls and VP4 [1]: significantly outperforms both the controls and VP4

From patent US20040236125A1, “Novel structures and compositions comprising sterols and/or stanols and specific classes of anti-inflammatory agents and use thereof in treating or preventing cardiovascular disease, its underlying conditions including hyperlipidemia and other disorders having inflammation as part of their …” (FORBES MEDI-TECH INC., priority 2002, published 2004)
